39 compounds from patent publication US6242494A, “Substituted β-amino acid inhibitors of methionine aminopeptidase-2” (Abbott Laboratories, priority 1999, dated 2001) can be followed below.

Where a name gives a salt, the structure may show the parent alone.

The target in one experiment is T1, methionine aminopeptidase-2 (MetAP2) (Homo sapiens, UniProt P50579).
T1 construct: made in house; host or cells: insect cells, baculovirus system (secreted, purified from culture supernatant)
T1 sequence (P50579 whole entry): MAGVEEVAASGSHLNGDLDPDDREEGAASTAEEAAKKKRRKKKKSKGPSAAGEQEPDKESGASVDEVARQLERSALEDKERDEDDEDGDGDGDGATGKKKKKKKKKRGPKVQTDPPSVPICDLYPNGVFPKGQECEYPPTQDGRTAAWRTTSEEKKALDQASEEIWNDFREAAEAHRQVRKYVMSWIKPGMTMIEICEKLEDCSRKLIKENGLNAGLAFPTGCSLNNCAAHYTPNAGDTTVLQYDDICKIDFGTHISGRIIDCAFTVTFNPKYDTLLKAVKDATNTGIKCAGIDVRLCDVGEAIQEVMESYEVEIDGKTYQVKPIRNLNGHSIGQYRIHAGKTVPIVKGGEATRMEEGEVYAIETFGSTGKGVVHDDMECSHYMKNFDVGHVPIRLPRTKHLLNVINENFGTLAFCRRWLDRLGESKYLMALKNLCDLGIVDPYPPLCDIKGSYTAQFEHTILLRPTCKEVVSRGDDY
Put plainly: Inhibition of MetAP2 enzyme activity (96-well, Met-Ala-Ser substrate, L-amino acid oxidase/peroxidase/ortho-dianisidine, 450 nm). The settings on record: IC50, recombinant MetAP2 4 μg/mL, pH 7.4, Met-Ala-Ser substrate, 20 minutes. The class given is biochemical.
As to `N[C@H](CC1CCCCC1)C(O)C(=O)NCCc1cccc(C(F)(F)F)c1` (mixture of isomers) [Example 200, (2RS,3R)-3-amino-4-cyclohexyl-2-hydroxy-N-(3-(trifluoromethyl)phenethyl)butanamide Hydrochloride], the IC50 (in general, the midpoint of a concentration-inhibition curve) amounted to 1500 nM.
As for `CC(=O)OC[C@H](C)NC(=O)C(O)[C@H](N)CC1CCCCC1` (stereo partly drawn) [Example 47], the IC50 worked out at 1500 nM.
Take `CCOC(=O)CN(C)C(=O)C(O)[C@H](N)CCSCC` (stereo partly drawn) [Example 39, hydrochloride]: the IC50 came out at 5100 nM.
Turning to `C[C@H](COC(=O)c1ccccc1)NC(=O)C(O)[C@H](N)CC1CCCCC1` (stereo partly drawn) [Example 50, hydrochloride], the IC50 was 3700 nM.
For the compound `Cc1ccc(NC(=O)C(O)[C@H](N)CC2CCCCC2)cc1` (mixture of isomers) [Example 143, (2RS,3R)-3-amino-4-cyclohexyl-2-hydroxy-N-(4-methylphenyl)butanamide], the IC50 came to 870 nM.
Consider `COc1ccc(NC(=O)C(O)[C@H](N)CC2CCCCC2)cc1` (mixture of isomers) [Example 145, (2RS,3R)-3-amino-4-cyclohexyl-2-hydroxy-N-(4-methoxyphenyl)butanamide], for which the IC50 was 1200 nM.
For the compound `N[C@H](CC1CCCCC1)C(O)C(=O)NCc1cc(C(F)(F)F)cc(C(F)(F)F)c1` (mixture of isomers) [Example 237, (2RS,3R)-3-amino-N-(3,5-bis(trifluoromethyl)benzyl)-4-cyclohexyl-2-hydroxybutanamide Hydrochloride], the IC50 was 5100 nM.
Still for that read-out and setting: for `N[C@H](CC1CCCCC1)C(O)C(=O)Nc1ccccc1Oc1ccccc1` (mixture of isomers) [Example 183, (2RS,3R)-3-amino-4-cyclohexyl-2-hydroxy-N-(2-phenoxyphenyl)butanamide hydrochloride] the value was 8700 nM; for `C[C@H](NC(=O)C(O)[C@H](N)CC1CCCCC1)C(=O)OCc1ccccc1CS(=O)(=O)c1ccccc1` (stereo partly drawn) [Example 91, (2RS,3R)-3-Amino-2-hydroxy-4-cyclohexyl)butanoyl-L-alanine-2-((phenylsulfonyl)methyl)benzyl Ester Hydrochloride], 2300 nM.
Turning to `CCn1nccc1NC(=O)[C@H](C)NC(=O)C(O)[C@H](N)CC1CCCCC1` (stereo partly drawn) [Example 72, ((2RS,3R)-3-amino-2-hydroxy-4-cyclohexyl)butanoylL-alanyl-(1-ethylpyrazole)amide hydrochloride], the IC50 was determined as 9200 nM.
As to `C[C@H](NC(=O)C(O)[C@H](N)CC1CCCCC1)C(=O)OCc1ccc(C(F)(F)F)cc1` (stereo partly drawn) [Example 95, (2RS,3R)-3-Amino-2-hydroxy-4-cyclohexyl)butanoyl-L-alanine 4-trifluoromethylbenzyl Ester Hydrochloride], the IC50 stood at 5200 nM.
For the compound `CC(C)CCC(C)NC(=O)C(O)[C@H](N)CC1CCCCC1` (mixture of isomers) [Example 217, (2RS,3R)-3-amino-4-cyclohexyl-N-(1,4-dimethylpentyl)-2-hydroxybutanamide Hydrochloride], the IC50 amounted to 1800 nM.
Still for that read-out and setting: for `N[C@H](CC1CCCCC1)C(O)C(=O)NCc1cccc(C(F)(F)F)c1` (stereo partly drawn) [Example 157] the value was 1600 nM; for `CC(=O)Nc1ccc(S(=O)(=O)NCCCCNC(=O)C(O)[C@H](N)CC2CCCCC2)cc1` (stereo partly drawn) [Example 86, (2RS,3R)-N-(4-(((4-(acetylamiono)phenyl)sulfonyl)amino)butyl)-3-amino-4-cyclohexyl-2-hydroxybutanamide hydrochloride], 1700 nM.
The same measure, in the same setting: for `CCC(=O)OC[C@H](C)NC(=O)C(O)[C@H](N)CC1CCCCC1` (stereo partly drawn) [Example 48, (2RS,3R,2'S)-N-((2-propionyloxypropyl)-3-amino-b2-hydroxy-$-cyclohexyl)butanamide hydrochloride] the value was 1500 nM.
The same measure, in the same setting: the result for `N[C@H](CC1CCCCC1)C(O)C(=O)Nc1cccc(OC(F)(F)F)c1` (mixture of isomers) [Example 170, (2RS,3R)-3-amino-4-cyclohexyl-2-hydroxy-N-(3-(trifluoromethoxy)phenyl)butanamide hydrochloride] reads 1000 nM; that for `COc1ccc2[nH]cc(CCNC(=O)C(O)[C@H](N)CC3CCCCC3)c2c1` (stereo partly drawn) [Example 58], 3500 nM.
Turning to `N[C@H](CC1CCCCC1)C(O)C(=O)N[C@@H](CO)C(=O)OCc1ccc(C(F)(F)F)cc1` (stereo partly drawn) [Example 140, 4-(trifluoromethyl)benzyl (2RS,3R,2'S)-2-((3-amino-4-cyclohexyl-2-hydroxybutanoyl)amino)-3-hydroxypropanoate trifluoroacetate], the IC50 is 2200 nM.
On to `COc1cc2c(cc1NC(=O)C(O)[C@H](N)CC1CCCCC1)oc1ccccc12` (mixture of isomers) [Example 179, (2RS,3R)-3-amino-4-cyclohexyl-2-hydroxy-N-(2-methoxydibenzo(b,d)furan-3-yl)butanamide hydrochloride], for which the IC50 came out at 4900 nM.
`CSCC[C@@H](N)C(O)C(=O)NCCc1ccc(Oc2ccccc2)cc1` (mixture of isomers) [Example 11, (2RS,3R)-N-(2-(4-phenoxyphenyl)ethyl)-3-amino-2-hydroxy-5-(methylthio)pentanamide hydrochloride]: the 50% inhibitory concentration (IC50) stood at 2600 nM.
In the case of `CCSCC[C@@H](N)C(O)C(=O)NCCCCCNS(=O)(=O)c1cccc2c(N(C)C)cccc12` (stereo partly drawn) [Example 79, dihydrochloride], the IC50 is 100 nM.
In the case of `CC(C)(NC(=O)C(O)[C@H](N)CC1CCCCC1)C(=O)OCc1ccccc1` (stereo partly drawn) [Example 89, Hydrochloride], the IC50 stood at 6600 nM.
As for `Cc1cccc(C)c1NC(=O)C(O)[C@H](N)CC1CCCCC1` (mixture of isomers) [Example 172, (2RS,3R)-3-amino-4-cyclohexyl-N-(2,6-dimethylphenyl)-2-hydroxybutanamide hydrochloride], the IC50 stood at 5000 nM.
With `COc1ccc(OC)c(NC(=O)C(O)[C@H](N)CC2CCCCC2)c1` (mixture of isomers) [Example 177, (2RS,3R)-3-amino-4cyclohexyl-N-(2,5-dimethoxyphenyl)-2-hydroxybutanamide hydrochloride], the IC50 was 2000 nM.
Same read-out and setting: the result for `N[C@H](CC1CCCCC1)C(O)C(=O)NCCCCc1ccccc1` (stereo partly drawn) [Example 30, hydrochloride] reads 1100 nM; that for `CC(C)(C)CC(C)(C)NC(=O)C(O)[C@H](N)CC1CCCCC1` (mixture of isomers) [Example 230, (2RS,3R)-3-amino-4-cyclohexyl-2-hydroxy-N-(1,1,3,3-tetramethylbutyl)butanamide Hydrochloride], 34000 nM; that for `CCSCC[C@@H](NCC(=O)OC)C(O)C(=O)NCCCCc1ccccc1` (stereo partly drawn) [Example 44, (2RS,3R)-N-((Phenylbutyryl)-3-methoxycarbonylmethylamino-2-hydroxy-4-ethylthio)pentanamide hydrochloride], 13000 nM.
On to `C[C@H](NC(=O)C(O)[C@H](N)CC1CCCCC1)c1nc(C(=O)O)cs1` (stereo partly drawn) [Example 75, (2RS,3R)-3-amino-2-hydroxy-4-cyclohexyl)butanoyl-(4-carboxyl-2-(1'amino)ethyl thizole hydrochloride], for which the IC50 is 9400 nM.
In the case of `CCC(=O)OC[C@@H](C)NC(=O)C(O)[C@H](N)CC1CCCCC1` (stereo partly drawn) [Example 51, hydrochloride], the IC50 stood at 5000 nM.
On the same count and under the same terms, the result for `Cc1ncc([N+](=O)[O-])n1CCNC(=O)[C@H](C)NC(=O)C(O)[C@H](N)CC1CCCCC1` (stereo partly drawn) [Example 61, ((2RS,3R)-3-amino-2-hydroxy-4-cyclohexyl)butanoyl-L-alanyl-(2-methyl-5-nitroimidazolyl-ethyl)amide hydrochloride] reads 13000 nM.
On the same count and under the same terms, the result for `COc1ccccc1NC(=O)C(O)[C@H](N)CC1CCCCC1` (mixture of isomers) [Example 146, (2RS,3R)-3-amino-4-cyclohexyl-2-hydroxy-N-(2-methoxyphenyl)butanamide] reads 1500 nM.
On the same count and under the same terms, for `CCOC(=O)c1csc([C@H](C)NC(=O)C(O)[C@H](N)CC2CCCCC2)n1` (stereo partly drawn) [Example 54, (2RS,3R,1'-S)-N-(4-ethoxycarbonyl-2-(1'-aminoethyl)thizole)-3-amino-2-hydroxy-4-cyclohexyl)butanamide hydrochloride] the value was 2600 nM.
With `N[C@H](CC1CCCCC1)C(O)C(=O)NCCNC(=O)OCc1ccccc1` (stereo partly drawn) [Example 78, hydrochloride], the IC50 came out at 1800 nM.
With `N[C@H](CC1CCCCC1)C(O)C(=O)Nc1ccc(Oc2ccccc2)cc1` (mixture of isomers) [Example 185, (2RS,3R)-3-amino-4-cyclohexyl-2-hydroxy-N-(4-phenoxyphenyl)butanamide hydrochloride], the IC50 stood at 1800 nM.
On the same count and under the same terms, for `CCOc1cccc(NC(=O)C(O)[C@H](N)CC2CCCCC2)c1` (mixture of isomers) [Example 224, (2RS,3R)-3-amino-4-cyclohexyl-N-(3-ethoxyphenyl)-2-hydroxybutanamide Hydrochloride] the value was 430 nM.
Turning to `CSCC[C@@H](N)C(O)C(=O)NCCc1cccnc1` (mixture of isomers) [Example 32, (2RS,3R)-N-(2-(3-pyridyl)ethyl)-3-amino-2-hydroxy-5-(methylthio)pentanamide], the IC50 stood at 1400 nM.
Consider `CSCC[C@@H](N)C(O)C(=O)NCCc1ccccn1` (stereo partly drawn) [Example 10, (2RS,3R)-N-(2-(2-pyridyl)ethyl)-3-amino-2-hydroxy-5-(methylthio)pentanamidedihydrochloride], for which the IC50 turned out to be 3600 nM.

Staying with this experiment, now noted: recombinant MetAP2 4 μg/mL, pH 7.4, Met-Ala-Ser substrate, 20 minutes.
On to `CCCC[C@H](NC(=O)C(O)[C@H](N)CC1CCCCC1)C(=O)OC` (stereo partly drawn) [Example 129, methyl (2RS,3R,2'S)-2-((3-amino-4-cyclohexyl-2-hydroxybutanoyl)amino)hexanoate hydrochloride], for which the IC50 was 27000 nM.

The experiment is the same for the next values; noted with them: recombinant MetAP2 4 μg/mL, pH 7.4, Met-Ala-Ser substrate, 20 minutes; read-out: IC50.
As for “(((2RS,3R)-3-amino-4cyclohexyl-2-hydroxybutanoyl)amino)(2,5-dimethoxybenzyl)chloronium hydrochloride [Example 163]”, the IC50 turned out to be 480 nM.
